SMILES strings stand for the structures.

Experimental findings from patent publication US6391918B1, “N-sulphonyl and N-sulphinyl phenylglycinamide” (priority 1998, dated 2002) are described below.

`CCS(=O)(=O)NC(C(=O)NCCc1ccc(OC)c(OC)c1)c1ccc(Cl)cc1` (stereo not shown) had a melting point of 136 to 138 °C.

The melting point is the temperature, or range, at which the solid turns liquid.
